{
  "source": "patent US9320766B2",
  "about": "“Protective effects and application of a lactobacillus plantarum on the alleviation of lead toxicity” (priority 2012, dated 2016)",
  "key": {"[1]": {"tested_on": "lead-exposed mice", "assay": "Oxidative damage caused by lead exposure (liver GSH and MDA)", "format": "in vivo", "settings": "mice fed 1 g/L lead acetate solution, daily treatment", "description": "40 healthy male Kunming mice of 20-25 g are taken and randomly divided into four groups: namely negative control group, lead acetate model group, Lactobacillus plantarum CCFM8661 treatment group and calcium disodium edetate (EDTANa2Ca) treatment group as positive control. The mice of negative control group are fed with ordinary drinking water and the mice of remaining three groups are fed with 1 g/L lead acetate solution to obtain the lead exposure models. The mice of Lactobacillus plantarum CCFM8661 treatment group are daily fed with the 2.0×10^9 cfu/mL skim milk suspension prepared in Example 3 of this Specification, and the mice of positive control treatment group are intraperitoneally injected with 5 g/L disodium edetate calcium agent every day. The blood is taken at the end of the experiment, and the livers are taken out after these mice are sacrificed. These organs are processed with the Ellmam method (Ellmam, G. C. Tissue sulfhydryl groups. Archives of biochemistry and biophysics 82(1): 70-77.) and the malondialdehyde (MDA) kit of Nanjing Jiancheng Bioengineering Institute to determine the glutathione (GSH) and MDA levels."}, "[2]": {"tested_on": "lead-exposed mice", "assay": "Lead levels of lead-exposed mice", "format": "in vivo", "settings": "mice fed 1 g/L lead acetate solution; compared with lead model and negative control groups, FIG. 3", "description": "40 healthy male Kunming mice of 20-25 g are randomly divided into four groups: namely negative control group, lead acetate model group, Lactobacillus plantarum CCFM8661 treatment group, and calcium disodium edetate treatment group as positive control. The mice of negative control group are fed with ordinary drinking water and the mice of remaining three groups are fed with 1 g/L lead acetate solution to obtain the lead exposure models. The mice of Lactobacillus plantarum CCFM8661 treatment group are daily fed with the 2.0×10^9 cfu/mL skim milk suspension prepared in Example 3 of Specifications, and the mice of positive control treatment group are intraperitoneally injected with 5 g/L disodium edetate calcium agent every day. The blood of mice is collected at the end of the experiment, and the liver, stomach and kidney are collected after these mice are sacrificed.\n40 healthy male Kunming mice of 20-25 g are taken and randomly divided into four groups: namely negative control group, lead acetate model group, Lactobacillus plantarum CCFM8661 treatment group and calcium disodium edetate treatment group as positive control. […] These organs are processed in accordance with above digestion processes, and then the lead levels can be determined with above atomic absorption spectrophotometry of Example 2."}},
  "note": "Marks after values point to notes of the source that are not given here.",
  "data": [
    {"molecule": "O=C([O-])CN(CCN(CC(=O)[O-])CC(=O)[O-])CC(=O)[O-].[Ca+2].[Na+].[Na+]", "note": "[EDTANa2Ca, calcium disodium edetate]", "values": [
      {"measurement": "GSH (liver)", "setting": "[1]", "value": "2.15 ± 0.50^c mg/g protein"},
      {"measurement": "MDA (liver)", "setting": "[1]", "value": "0.15 ± 0.03^c nmol/mg protein"},
      {"measurement": "lead levels of mice blood, liver, stomach and kidney", "setting": "[2]", "value": "higher than that of the negative control group, but lower than that of the lead model control group"}
    ]}
  ]
}
